Bridge positions count the residues as written; N and C are the ends. Square brackets hold non-standard residues; d marks the D form. Peptide text beside a SMILES is read from it. * marks the point of attachment. ξ: configuration not given here. Phe(4-COOH) = N[C@@H](Cc1ccc(C(=O)O)cc1)C(=O)O; Bip = N[C@@H](Cc1ccc(-c2ccccc2)cc1)C(=O)O; Phe(3-Me) = Cc1cccc(C[C@H](N)C(=O)O)c1; Cha = N[C@@H](CC1CCCCC1)C(=O)O; Cit = NC(=O)NCCC[C@H](N)C(=O)O; Thr(3ξ) = CC(O)[C@H](N)C(=O)O; 12Ado = NCCCCCCCCCCCC(=O)O; Carboxymethyl = O=C(O)C*; Orn = NCCC[C@H](N)C(=O)O; Aun = NCCCCCCCCCCC(=O)O; Dab = NCC[C@H](N)C(=O)O; ξDab = NCCC(N)C(=O)O
Target: T1, PD-1/PD-L1 interaction (PE-labeled human PD-L1-Ig binding to Jurkat cell line over-expressing human PD-1) (Homo sapiens, UniProt Q15116)
T1 construct: expressed in transfected cells; host or cells: Jurkat
Assay: Jurkat-PD-1 Cell Binding High-Content Screening Assay (CBA)
Assay type: cell-based
Details: Jurkat cell line over-expressing human PD-1; PE-labeled PD-L1-Ig 20 nM final; read-out: Jurkat hPD1-PDL1 IC50
In short: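 Binding of fluorescent PD-L1-Ig (phycoerythrin on Ig tag, 20 nM final, 1 h) measured by high-content imaging of fixed, Hoechst-counterstained Jurkat-hPD-1 cells. Compound added 2 h at 37° C beforehand, in DMEM with 10% fetal calf serum.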

T1 sequence (Q15116 25-288): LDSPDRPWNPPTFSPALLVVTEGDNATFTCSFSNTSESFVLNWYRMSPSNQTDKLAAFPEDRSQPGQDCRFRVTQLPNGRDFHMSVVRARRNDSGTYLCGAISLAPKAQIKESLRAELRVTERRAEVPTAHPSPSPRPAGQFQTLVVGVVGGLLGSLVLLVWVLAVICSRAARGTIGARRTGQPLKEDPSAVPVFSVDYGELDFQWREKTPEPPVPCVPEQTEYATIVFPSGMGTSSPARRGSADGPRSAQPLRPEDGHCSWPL

Row | Compound | IC50 [nM]
1 | Cc1cccc(C[C@@H]2NC(=O)[C@H](CC(=O)O)NC(=O)[C@H](Cc3ccc(OCC(=O)O)cc3)NC(=O)[C@H](C(C)O)NC(=O)CSC[C@@H](C(=O)N[C@H](CC(N)=O)C(=O)NCCCCCCCCCCC(=O)O)NC(=O)[C@H](C(C)O)NC(=O)[C@H](C(C)C)NC(=O)[C@H](CC3CCCCC3)NC(=O)[C@H](CCN)NC(=O)[C@@H](CC(C)C)NC(=O)[C@H](CCCN)NC(=O)[C@H](Cc3ccc(OCC(=O)O)cc3)NC(=O)[C@H](Cc3ccc(-c4ccccc4)cc3)NC(=O)[C@H](Cc3ccc(OCC(=O)O)cc3)NC2=O)c1 (stereo partly drawn) [Compound 3490] ({CH2CO}-[Thr(3ξ)]Y(Carboxymethyl)D[Phe(3-Me)]Y(Carboxymethyl)[Bip]Y(Carboxymethyl)[Orn][dL][Dab][Cha]V[Thr(3ξ)]C[dN][Aun]-OH; thioether N-14) | 5.9
2 | Cc1cccc(C[C@@H]2NC(=O)[C@H](CC(=O)O)NC(=O)[C@H](Cc3ccc(OCC(=O)O)cc3)NC(=O)[C@H](CCCNC(=N)N)NC(=O)CSC[C@@H](C(=O)N[C@@H](CCN)C(=O)NCCCCCCCCCCC(=O)O)NC(=O)[C@H](C(C)O)NC(=O)[C@H](C(C)C)NC(=O)[C@H](CC3CCCCC3)NC(=O)[C@H](CCN)NC(=O)[C@@H](CC(C)C)NC(=O)[C@H](CCCN)NC(=O)[C@H](Cc3ccc(C(=O)O)cc3)NC(=O)[C@H](Cc3ccc(-c4ccccc4)cc3)NC(=O)[C@H](Cc3ccc(C(=O)O)cc3)NC2=O)c1 (stereo partly drawn) [Compound 3491] ({CH2CO}-RY(Carboxymethyl)D[Phe(3-Me)][Phe(4-COOH)][Bip][Phe(4-COOH)][Orn][dL][Dab][Cha]V[Thr(3ξ)]C[Dab][Aun]-OH; thioether N-14) | 11.4
3 | Cc1cccc(C[C@@H]2NC(=O)[C@H](CC(=O)O)NC(=O)[C@H](Cc3ccc(OCC(=O)O)cc3)NC(=O)[C@H](C(C)O)NC(=O)CSC[C@@H](C(=O)N[C@H](CC(N)=O)C(=O)NCCCCCCCCCCC(=O)O)NC(=O)[C@H](C(C)O)NC(=O)[C@H](C(C)C)NC(=O)[C@H](CC3CCCCC3)NC(=O)[C@H](CCN)NC(=O)[C@@H](CC(C)C)NC(=O)[C@H](CCCN)NC(=O)[C@H](Cc3ccc(OCC(=O)O)cc3)NC(=O)[C@H](Cc3ccc(-c4ccccc4)cc3)NC(=O)[C@H](C(C)C)NC2=O)c1 (stereo partly drawn) [Compound 3493] ({CH2CO}-[Thr(3ξ)]Y(Carboxymethyl)D[Phe(3-Me)]V[Bip]Y(Carboxymethyl)[Orn][dL][Dab][Cha]V[Thr(3ξ)]C[dN][Aun]-OH; thioether N-14) | 9.8
4 | CC(=O)NCCCC[C@@H]1NC(=O)[C@H](Cc2ccc(OCC(=O)O)cc2)NC(=O)[C@H](Cc2ccc(-c3ccccc3)cc2)NC(=O)[C@H](Cc2ccc(OCC(=O)O)cc2)NC(=O)[C@H](Cc2cccc(C)c2)NC(=O)[C@H](CC(=O)O)NC(=O)[C@H](Cc2ccc(OCC(=O)O)cc2)NC(=O)[C@H](C(C)O)NC(=O)CSC[C@@H](C(=O)N[C@@H](CCN)C(=O)NCCCCCCCCCCC(=O)O)NC(=O)[C@H](C(C)O)NC(=O)[C@H](C(C)C)NC(=O)[C@H](CC2CCCCC2)NC(=O)[C@H](CCN)NC(=O)[C@@H](CC(C)C)NC1=O (stereo partly drawn) [Compound 3495] ({CH2CO}-[Thr(3ξ)]Y(Carboxymethyl)D[Phe(3-Me)]Y(Carboxymethyl)[Bip]Y(Carboxymethyl)K(Ac)[dL][Dab][Cha]V[Thr(3ξ)]C[Dab][Aun]-OH; thioether N-14) | 16.8
5 | CC(=O)NCCCC[C@@H]1NC(=O)[C@H](Cc2ccc(OCC(=O)O)cc2)NC(=O)[C@H](Cc2ccc(-c3ccccc3)cc2)NC(=O)[C@H](Cc2ccc(OCC(=O)O)cc2)NC(=O)[C@H](Cc2cccc(C)c2)NC(=O)[C@H](CC(=O)O)NC(=O)[C@H](Cc2ccc(OCC(=O)O)cc2)NC(=O)[C@H](CCCNC(=N)N)NC(=O)CSC[C@@H](C(=O)N[C@@H](CCN)C(=O)NCCCCCCCCCCC(=O)O)NC(=O)[C@H](C(C)O)NC(=O)[C@H](C(C)C)NC(=O)[C@H](CC2CCCCC2)NC(=O)[C@H](CCN)NC(=O)[C@@H](CC(C)C)NC1=O (stereo partly drawn) [Compound 3496] ({CH2CO}-RY(Carboxymethyl)D[Phe(3-Me)]Y(Carboxymethyl)[Bip]Y(Carboxymethyl)K(Ac)[dL][Dab][Cha]V[Thr(3ξ)]C[Dab][Aun]-OH; thioether N-14) | 11
6 | Cc1cccc(C[C@@H]2NC(=O)[C@H](CC(=O)O)NC(=O)[C@H](Cc3ccc(OCC(=O)O)cc3)NC(=O)[C@H](C(C)O)NC(=O)CSC[C@@H](C(=O)N[C@H](CC(N)=O)C(=O)NCCCCCCCCCCC(=O)O)NC(=O)[C@H](CCN)NC(=O)[C@H](C(C)C)NC(=O)[C@H](CC3CCCCC3)NC(=O)[C@H](CCN)NC(=O)[C@@H](CC(C)C)NC(=O)[C@H](CCCN)NC(=O)[C@H](Cc3ccc(OCC(=O)O)cc3)NC(=O)[C@H](Cc3ccc(-c4ccccc4)cc3)NC(=O)[C@H](Cc3ccc(OCC(=O)O)cc3)NC2=O)c1 (stereo partly drawn) [Compound 3497] ({CH2CO}-[Thr(3ξ)]Y(Carboxymethyl)D[Phe(3-Me)]Y(Carboxymethyl)[Bip]Y(Carboxymethyl)[Orn][dL][Dab][Cha]V[Dab]C[dN][Aun]-OH; thioether N-14) | 3.6
7 | Cc1cccc(C[C@@H]2NC(=O)[C@H](CC(=O)O)NC(=O)[C@H](Cc3ccc(OCC(=O)O)cc3)NC(=O)[C@H](CCCNC(=N)N)NC(=O)CSC[C@@H](C(=O)N[C@H](CC(N)=O)C(=O)NCCCCCCCCCCC(=O)O)NC(=O)[C@H](C(C)O)NC(=O)[C@H](C(C)C)NC(=O)[C@H](CC3CCCCC3)NC(=O)[C@H](CCN)NC(=O)[C@@H](CC(C)C)NC(=O)[C@H](CCCNC(N)=O)NC(=O)[C@H](Cc3ccc(OCC(=O)O)cc3)NC(=O)[C@H](Cc3ccc(-c4ccccc4)cc3)NC(=O)[C@H](Cc3ccc(OCC(=O)O)cc3)NC2=O)c1 (stereo partly drawn) [Compound 3498] ({CH2CO}-RY(Carboxymethyl)D[Phe(3-Me)]Y(Carboxymethyl)[Bip]Y(Carboxymethyl)[Cit][dL][Dab][Cha]V[Thr(3ξ)]C[dN][Aun]-OH; thioether N-14) | 47.2
8 | Cc1cccc(C[C@@H]2NC(=O)[C@H](CC(=O)O)NC(=O)[C@H](Cc3ccc(OCC(=O)O)cc3)NC(=O)[C@H](C(C)O)NC(=O)CSC[C@@H](C(=O)N[C@H](CC(N)=O)C(=O)NCCCCCCCCCCC(=O)O)NC(=O)[C@H](C(C)O)NC(=O)[C@H](C(C)C)NC(=O)[C@H](CC3CCCCC3)NC(=O)[C@H](CCN)NC(=O)[C@@H](CC(C)C)NC(=O)[C@H](CCCNC(N)=O)NC(=O)[C@H](Cc3ccc(OCC(=O)O)cc3)NC(=O)[C@H](Cc3ccc(-c4ccccc4)cc3)NC(=O)[C@H](Cc3ccc(OCC(=O)O)cc3)NC2=O)c1 (stereo partly drawn) [Compound 3499] ({CH2CO}-[Thr(3ξ)]Y(Carboxymethyl)D[Phe(3-Me)]Y(Carboxymethyl)[Bip]Y(Carboxymethyl)[Cit][dL][Dab][Cha]V[Thr(3ξ)]C[dN][Aun]-OH; thioether N-14) | 15
9 | Cc1cccc(C[C@@H]2NC(=O)[C@H](CC(=O)O)NC(=O)[C@H](Cc3ccc(OCC(=O)O)cc3)NC(=O)[C@H](C(C)O)NC(=O)CSC[C@@H](C(=O)N[C@H](CC(N)=O)C(=O)NCCCCCCCCCCC(=O)O)NC(=O)[C@H](C(C)O)NC(=O)[C@H](C(C)C)NC(=O)[C@H](CC3CCCCC3)NC(=O)[C@H](CCN)NC(=O)[C@@H](CC(C)C)NC(=O)[C@H](CCCN)NC(=O)[C@H](Cc3ccc(C(=O)O)cc3)NC(=O)[C@H](Cc3ccc(-c4ccccc4)cc3)NC(=O)[C@H](Cc3ccc(C(=O)O)cc3)NC2=O)c1 (stereo partly drawn) [Compound 3500] ({CH2CO}-[Thr(3ξ)]Y(Carboxymethyl)D[Phe(3-Me)][Phe(4-COOH)][Bip][Phe(4-COOH)][Orn][dL][Dab][Cha]V[Thr(3ξ)]C[dN][Aun]-OH; thioether N-14) | 5.2
10 | Cc1cccc(C[C@@H]2NC(=O)[C@H](CC(=O)O)NC(=O)[C@H](Cc3ccc(OCC(=O)O)cc3)NC(=O)[C@H](CCCNC(=N)N)NC(=O)CSC[C@@H](C(=O)NC(CCN)C(=O)NCCCCCCCCCCCC(=O)O)NC(=O)[C@H](C(C)O)NC(=O)[C@H](C(C)C)NC(=O)[C@H](CC3CCCCC3)NC(=O)[C@H](Cc3c[nH]cn3)NC(=O)[C@@H](CC(C)C)NC(=O)[C@H](CCCN)NC(=O)[C@H](CCCNC(N)=O)NC(=O)[C@H](Cc3ccc(-c4ccccc4)cc3)NC(=O)[C@H](C(C)C)NC2=O)c1 (stereo partly drawn) [Compound 3501] ({CH2CO}-RY(Carboxymethyl)D[Phe(3-Me)]V[Bip][Cit][Orn][dL]H[Cha]V[Thr(3ξ)]C[ξDab][12Ado]-OH; thioether N-14) | 103
11 | Cc1cccc(C[C@@H]2NC(=O)[C@H](CC(=O)O)NC(=O)[C@H](Cc3ccc(OCC(=O)O)cc3)NC(=O)[C@H](Cc3ccc(OCC(=O)O)cc3)NC(=O)CSC[C@@H](C(=O)NC(CCN)C(=O)NCCCCCCCCCCCC(=O)O)NC(=O)[C@H](C(C)O)NC(=O)[C@H](C(C)C)NC(=O)[C@H](CC3CCCCC3)NC(=O)[C@H](Cc3cnc[nH]3)NC(=O)[C@@H](CC(C)C)NC(=O)[C@H](CCCN)NC(=O)[C@H](CCCNC(N)=O)NC(=O)[C@H](Cc3ccc(-c4ccccc4)cc3)NC(=O)[C@H](C(C)C)NC2=O)c1 (stereo partly drawn) [Compound 3502] ({CH2CO}-Y(Carboxymethyl)Y(Carboxymethyl)D[Phe(3-Me)]V[Bip][Cit][Orn][dL]H[Cha]V[Thr(3ξ)]C[ξDab][12Ado]-OH; thioether N-14) | 63.1
12 | Cc1cccc(C[C@@H]2NC(=O)[C@H](CC(=O)O)NC(=O)[C@H](Cc3ccc(OCC(=O)O)cc3)NC(=O)[C@H](C(C)O)NC(=O)CSC[C@@H](C(=O)NC(CCN)C(=O)NCCCCCCCCCCC(=O)O)NC(=O)[C@H](C(C)O)NC(=O)[C@H](C(C)C)NC(=O)[C@H](CC3CCCCC3)NC(=O)[C@H](Cc3cnc[nH]3)NC(=O)[C@@H](CC(C)C)NC(=O)[C@H](CCCN)NC(=O)[C@H](CCCNC(N)=O)NC(=O)[C@H](Cc3ccc(-c4ccccc4)cc3)NC(=O)[C@H](C(C)C)NC2=O)c1 (stereo partly drawn) [Compound 3503] ({CH2CO}-[Thr(3ξ)]Y(Carboxymethyl)D[Phe(3-Me)]V[Bip][Cit][Orn][dL]H[Cha]V[Thr(3ξ)]C[ξDab][Aun]-OH; thioether N-14) | 38.2

Source: patent publication US20260022142A1, “MACROCYCLIC IMMUNOMODULATORS” (Bristol-Myers Squibb Company, priority 2022, published 2026)
